Reference: PubChem BioAssay (NCI)
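Where inhibition never reached the appropriate level, the endpoint shown equals the highest concentration tested. Otherwise, values were interpolated linearly from a five-concentration, 48-hour dose response in 96-well plates. GI50 is the concentration that inhibits growth by half. The concentration for full growth arrest is given as TGI.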

Assays:
Assay in all cases: NCI anticancer screen, dose series, 48 h
ACHN renal = test system: ACHN renal
CAKI-1 renal = test system: CAKI-1 renal
MALME-3M melanoma = test system: MALME-3M melanoma
NCI-H226 lung = test system: NCI-H226 lung
OVCAR-8 ovarian = test system: OVCAR-8 ovarian
SK-MEL-5 melanoma = test system: SK-MEL-5 melanoma
TK-10 renal = test system: TK-10 renal
UACC-257 melanoma = test system: UACC-257 melanoma

Row | Structure (SMILES) | GI50 (ACHN renal) | TGI (ACHN renal) | GI50 (CAKI-1 renal) | TGI (CAKI-1 renal) | GI50 (MALME-3M melanoma) | TGI (MALME-3M melanoma) | GI50 (NCI-H226 lung) | TGI (NCI-H226 lung) | GI50 (OVCAR-8 ovarian) | TGI (OVCAR-8 ovarian) | GI50 (SK-MEL-5 melanoma) | TGI (SK-MEL-5 melanoma) | GI50 (TK-10 renal) | TGI (TK-10 renal) | GI50 (UACC-257 melanoma) | TGI (UACC-257 melanoma)
1 | COc1cc(/C=C/C(=O)c2c(C)n([O-])c3ccccc3[n+]2=O)cc(OC)c1OC | 10.8 µM | 22.7 µM | 7.61 µM | 20.7 µM | 11.4 µM | 26.7 µM | 15.2 µM | 34 µM | 4.43 µM | 17.7 µM | 3.62 µM | 13.4 µM | 11.3 µM | 24 µM | 6.48 µM | 20.5 µM
2 | CN1CCN(C2=C(Cl)C(=O)c3ccccc3C2=O)CC1 | 1.57 µM | 2.94 µM | 1.77 µM | 3.39 µM | 1.81 µM | 3.51 µM | 3.31 µM | 10.4 µM | 1.74 µM | 3.59 µM | 1.55 µM | 2.93 µM | 1.71 µM | 3.29 µM | 1.73 µM | 3.2 µM
3 | N[C@H]1CCC[C@@H](O)C1O (stereo partly specified) | – | > 100 µM | – | > 100 µM | – | > 100 µM | – | > 100 µM | – | > 100 µM | – | > 100 µM | – | – | – | > 100 µM
4 | O=C(c1ccc(Cl)cc1Cl)N1CCN(C(=O)c2ccc(Cl)cc2Cl)C1=S | 21.3 µM | 45.7 µM | 22.1 µM | 52.1 µM | 25.4 µM | 62.7 µM | 40.9 µM | 60.1 µM | 22.1 µM | 48.5 µM | – | – | 36.3 µM | > 100 µM | 28.2 µM | 63.4 µM
5 | COc1ccc(C2=Nn3c(nnc3-c3ccc(F)c(Cl)c3)SC2)cc1 | > 100 µM | > 100 µM | > 100 µM | > 100 µM | > 100 µM | > 100 µM | > 100 µM | > 100 µM | > 100 µM | > 100 µM | > 100 µM | > 100 µM | > 100 µM | > 100 µM | > 100 µM | > 100 µM
6 | COc1cc(C[C@H]2COC(=O)[C@]2(O)Cc2ccc(OCc3ccccc3)c(OC)c2)ccc1OCc1ccccc1 | 26.1 µM | > 100 µM | 19.4 µM | > 100 µM | 8.33 µM | 87.3 µM | 33.7 µM | > 100 µM | 12.3 µM | > 100 µM | 13.7 µM | 37.1 µM | 26.7 µM | > 100 µM | 16 µM | > 100 µM
7 | O=CNC(Cc1cnc[nH]1)C(=O)O (stereo unspecified) | – | > 100 µM | – | > 100 µM | – | > 100 µM | – | > 100 µM | – | > 100 µM | – | > 100 µM | – | > 100 µM | – | > 100 µM
8 | COC(=O)CNC(=O)C(=O)c1c(O)c(O)c(C(C)C)c2cc(C)c(-c3c(C)cc4c(C(C)C)c(O)c(O)c(C(=O)C(=O)NCC(=O)OC)c4c3O)c(O)c12 | 1.42 µM | 5.54 µM | 3.74 µM | 14.3 µM | 2.23 µM | 11 µM | – | – | 2.05 µM | 8.4 µM | 4.29 µM | 11.3 µM | – | – | 7.89 µM | 20.9 µM
9 | Cc1cccc(CNc2c3ccccc3nc3ccccc23)c1 | 1.52 µM | 3.47 µM | 1.61 µM | 5.03 µM | 1.66 µM | 3.17 µM | 1.99 µM | 6.02 µM | 2.48 µM | 9.82 µM | 1.7 µM | 3.14 µM | 2.83 µM | 12.2 µM | 2.11 µM | 5.05 µM
